Source: patent publication US20220213061A9, “HETEROCYCLIC COMPOUNDS FOR MODULATING NR2F6” (TES Pharma S.r.l., priority 2020, published 2022)
Where a name gives a salt, the structure may show the parent alone.

These molecules were tested against T1, recombinant human NR2F6 protein (Homo sapiens, UniProt P10588) (assay: Biochemical NR2F6 binding assay (EnSpire label-free)). Settings: label-free binding to immobilized purified recombinant human NR2F6; ligands 1 nM to 100 uM, 1% DMSO.
T1 sequence (P10588 1-404): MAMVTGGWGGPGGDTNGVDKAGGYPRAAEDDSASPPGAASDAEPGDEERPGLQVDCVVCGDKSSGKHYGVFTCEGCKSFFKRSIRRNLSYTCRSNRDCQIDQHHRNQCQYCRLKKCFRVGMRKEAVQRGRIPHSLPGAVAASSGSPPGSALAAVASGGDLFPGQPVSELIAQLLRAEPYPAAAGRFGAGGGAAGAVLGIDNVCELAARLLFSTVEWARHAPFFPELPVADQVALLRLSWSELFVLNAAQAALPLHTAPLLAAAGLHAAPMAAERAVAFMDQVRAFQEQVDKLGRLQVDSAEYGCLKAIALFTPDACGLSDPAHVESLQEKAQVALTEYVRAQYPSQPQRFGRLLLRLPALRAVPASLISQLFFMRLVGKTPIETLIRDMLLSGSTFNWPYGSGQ
Method: Purified recombinant human NR2F6 protein was dissolved in immobilization buffer at pH 4.5 and then immobilized in EnSpire-LFB High-Sensitivity User-Activated Plates at the concentration of 50 μg/well plate and left in incubation for 16 h at 4° C. Wells with only immobilization buffer were used as negative control to check the protein coating efficiency. NR2F6 ligands were resuspended in DMSO at the concentration of 10 mM, then dispensed into a plate containing assay buffer at concentrations ranging from 1 nM to 100 uM using an HP-dispenser. DMSO was normalized at the 1% of volume of each well. The final readings were taken over a period of 30 minutes. The label-free responses were measured as shifts in reflected wavelength and are expressed in picometers (pm). Results were analyzed using the EnSpire label-free user interface software, and EC50 and graphs were generated using GraphPad PRISM software. In the tables below, A is <1 μM; B is 1 to 10 μM; C is 10 to 50 μM; and D is >50 μM.

First: O=C(Nc1cccc(Oc2ccc(C(F)(F)F)cc2)c1)[C@H]1CNC[C@@H]1c1ccccc1 (racemic) [Compound I-92, (±)-trans-4-Phenyl-N-{3-[4-(trifluoromethyl)phenoxy]phenyl}pyrrolidine-3-carboxamide hydrochloride]
Second: N#Cc1ccc(Oc2cccc(NC(=O)[C@H]3CNC[C@@H]3c3ccccc3)c2)cc1 [Compound I-111, (3R,4S)—N-[3-(4-Cyanophenoxy)phenyl]-4-phenylpyrrolidine-3-carboxamide hydrochloride]
The EC50 of the first is higher: 1 to 10 µM for the first, under 1 µM for the second.

Compared with `c1ccc([C@H]2CNC[C@@H]2Nc2nc3cnccc3s2)cc1` (racemic) [Compound I-10, (±)-trans-N-[4-Phenylpyrrolidin-3-yl][1,3]thiazolo[4,5-c]pyridin-2-amine hydrochloride], `O=C(Nc1csc2cnccc12)[C@H]1CNC[C@@H]1c1ccccc1` [Compound I-32, (3R,4S)-4-Phenyl-N-(thieno[2,3-c]pyridin-3-yl)pyrrolidine-3-carboxamide dihydrochloride] is lower in EC50: over 50 µM for the first, 1 to 10 µM for the second.

First: O=C(Nc1cccc2cnccc12)[C@@H]1CNC[C@H]1c1ccccc1 [Compound I-40, (3S,4R)—N-(Isoquinolin-5-yl)-4-phenylpyrrolidine-3-carboxamide dihydrochloride]
Second: O=C(Nc1cccc2cnccc12)O[C@@H]1CNC[C@H]1c1ccccc1 (racemic) [Compound I-4, (±)-trans-4-Phenylpyrrolidin-3-yl isoquinolin-5-ylcarbamate]
The EC50 of the first is higher: over 50 µM for the first, 1 to 10 µM for the second.

`O=C(Nc1cccc2ccccc12)[C@H]1CNC[C@@H]1c1ccccc1` [Compound I-74, (3R,4S)—N-(Naphthalen-1-yl)-4-phenylpyrrolidine-3-carboxamide hydrochloride] and `O=C(Nc1cccc2ccccc12)[C@@H]1CNC[C@H]1c1ccccc1` [Compound I-75, (3S,4R)—N-(Naphthalen-1-yl)-4-phenylpyrrolidine-3-carboxamide hydrochloride] fall in the same range of EC50: 1 to 10 µM for the first, 1 to 10 µM for the second.

First: O=C(N[C@H]1C[C@H](Oc2cccnc2)C1)[C@H]1CNC[C@@H]1c1ccccc1 (racemic) [Compound I-101, (±)-trans-N-[trans-3-(Pyridyn-3-yloxy)cyclobutyl]-4-phenylpyrrolidine-3-carboxamide dihydrochloride]
Second: Cc1ccc(O[C@H]2C[C@H](NC(=O)[C@@H]3CNC[C@H]3c3ccccc3)C2)cc1 (racemic) [Compound I-115, (±)-trans-N-[trans-3-(4-Methylphenoxy)cyclobutyl]-4-phenylpyrrolidine-3-carboxamide hydrochloride]
The EC50 of the first is higher: 10 to 50 µM for the first, 1 to 10 µM for the second. The second is the more potent here.

`Cc1cc2c(NC(=O)[C@@H]3CNC[C@H]3c3ccccc3)cccc2cn1` (racemic) [Compound I-15, (±)-trans-N-(3-Methylisoquinolin-5-yl)-4-phenylpyrrolidine-3-carboxamide dihydrochloride] and `O=C(Nc1cccc2c(Cl)nccc12)[C@H]1CNC[C@@H]1c1ccccc1` [Compound I-83, (3R,4S)—N-(1-Chloroisoquinolin-5-yl)-4-phenylpyrrolidine-3-carboxamide dihydrochloride] fall in the same range of EC50: 1 to 10 µM for the first, 1 to 10 µM for the second.

First: O=C(Nc1cccc2c1OCCO2)[C@H]1CNC[C@@H]1c1ccccc1 (racemic) [Compound I-65, (±)-trans-N-(2,3-Dihydro-1,4-benzodioxin-5-yl)-4-phenylpyrrolidine-3-carboxamide hydrochloride]
Second: O=C(Nc1cccc2ncccc12)[C@@H]1CNC[C@H]1c1ccccc1 (racemic) [Compound I-17, (±)-trans-4-Phenyl-N-(quinolin-5-yl)pyrrolidine-3-carboxamide dihydrochloride]
The EC50 of the first is higher: over 50 µM for the first, 10 to 50 µM for the second. The second is the more potent here.

First: O=C(Nc1cccc(-c2cccnc2)c1)[C@@H]1CNC[C@H]1C1CCOCC1 (racemic) [Compound I-50, (±)-trans-N-[3-(Pyridin-3-yl)phenyl]-4-(tetrahydro-2H-pyran-4-yl)pyrrolidine-3-carboxamide dihydrochloride]
Second: O=C(Nc1cccc(-c2cccnc2)c1)[C@@H]1CNC[C@H]1c1ccccc1 (racemic) [Compound I-11, (±)-trans-4-Phenyl-N-[3-(pyridin-3-yl)phenyl]pyrrolidine-3-carboxamide]
The EC50 of the first is higher: over 50 µM for the first, 1 to 10 µM for the second. The second is the more potent here.

`O=C(Nc1cccc(Oc2cccnc2)c1)[C@@H]1CNC[C@H]1c1ccccc1` (racemic) [Compound I-52, dihydrochloride] and `O=C(Nc1cccc(Oc2ccncc2)c1)[C@H]1CNC[C@@H]1c1ccccc1` (racemic) [Compound I-98, (±)-trans-4-Phenyl-N-[3-(pyridin-4-yloxy)phenyl]pyrrolidine-3-carboxamide dihydrochloride] cannot be ordered by EC50: over 50 µM for the first, over 50 µM for the second.

`O=C(Nc1cccc(Nc2ccccc2)c1)[C@H]1CNC[C@@H]1c1ccccc1` [Compound I-113, (3R,4S)-4-Phenyl-N-[3-(phenylamino)phenyl]pyrrolidine-3-carboxamide hydrochloride] and `O=C(Nc1cccc(Nc2ccccc2)c1)[C@@H]1CNC[C@H]1c1ccccc1` [Compound I-114, (3S,4R)-4-Phenyl-N-[3-(phenylamino)phenyl]pyrrolidine-3-carboxamide hydrochloride] fall in the same range of EC50: 1 to 10 µM for the first, 1 to 10 µM for the second.

`O=C(Nc1cccc(-c2cccnc2)c1)c1c[nH]cc1-c1ccccc1` [Compound I-51, 4-Phenyl-N-[3-(pyridin-3-yl)phenyl]-1H-pyrrole-3-carboxamide] and `CC(=O)N1C[C@@H](C(=O)Nc2cccc(-c3cccnc3)c2)[C@H](c2ccccc2)C1` (racemic) [Compound I-55, (±)-trans-1-Acetyl-4-phenyl-N-[3-(pyridin-3-yl)phenyl]pyrrolidine-3-carboxamide] cannot be ordered by EC50: over 50 µM for the first, over 50 µM for the second.

First: O=C(Nc1ccc(-c2cccnc2)cc1)[C@H]1CNC[C@@H]1c1ccccc1 [Compound I-39, (3R,4S)-4-Phenyl-N-[4-(pyridin-3-yl)phenyl]pyrrolidine-3-carboxamide dihydrochloride]
Second: O=C(Nc1ncc(-c2cccnc2)s1)[C@@H]1CNC[C@H]1c1ccccc1 (racemic) [Compound I-20, (±)-trans-4-Phenyl-N-[5-(pyridin-3-yl)-1,3-thiazol-2-yl]pyrrolidine-3-carboxamide]
The EC50 of the first is higher: over 50 µM for the first, 1 to 10 µM for the second. The second is the more potent here.

First: O=C(Nc1cccc(-c2ccccc2)c1)[C@@H]1CNC[C@H]1c1ccc(F)cc1 (racemic) [Compound I-23, (±)-trans-N-(Biphenyl-3-yl)-4-(4-fluorophenyl)pyrrolidine-3-carboxamide hydrochloride]
Second: COc1ccc([C@@H]2CNC[C@H]2C(=O)Nc2cccc(-c3ccccc3)c2)cc1 (racemic) [Compound I-45, (±)-trans-N-(Biphenyl-3-yl)-4-(4-methoxyphenyl)pyrrolidine-3-carboxamide hydrochloride]
The EC50 of the first is lower: 1 to 10 µM for the first, over 50 µM for the second.

`O=C(Nc1cccc(OC2CCOCC2)c1)[C@@H]1CNC[C@H]1c1ccccc1` (racemic) [Compound I-86, (±)-trans-N-[3-(Tetrahydro-2H-pyran-4-yloxy)phenyl]-4-phenylpyrrolidine-3-carboxamide hydrochloride] and `O=C(Nc1cccc(Cc2ccccc2)c1)[C@@H]1CNC[C@H]1c1ccccc1` (racemic) [Compound I-85, (±)-trans-N-(3-Benzylphenyl)-4-phenylpyrrolidine-3-carboxamide hydrochloride] fall in the same range of EC50: 1 to 10 µM for the first, 1 to 10 µM for the second.

Compared with `O=C(Nc1cccc2cnccc12)C1=C(c2ccccc2)CNC1` [Compound I-1, N-(Isoquinolin-5-yl)-4-phenyl-2,5-dihydro-1H-pyrrole-3-carboxamide], `S=C(Nc1cccc2cnccc12)O[C@@H]1CNC[C@H]1c1ccccc1` (racemic) [Compound I-2, (±)-trans-O-(4-Phenylpyrrolidin-3-yl) isoquinolin-5-ylcarbamothioate] is lower in EC50: 10 to 50 µM for the first, 1 to 10 µM for the second.

Going from `O=C(Nc1cccc(Nc2ccccc2)c1)[C@H]1CNC[C@@H]1c1ccccc1` (racemic) [Compound I-89, (±)-trans-4-Phenyl-N-[3-(phenylamino)phenyl]pyrrolidine-3-carboxamide hydrochloride] to `O=C(Nc1cccc(-c2ccccc2)c1)[C@@H]1CNC[C@H]1c1ccccc1F` (racemic) [Compound I-28, (±)-trans-4-(2-Fluorophenyl)-pyrrolidine-3-carboxylic acid biphenyl-3-ylamide hydrochloride], the EC50 rises from under 1 µM to over 50 µM.

`O=C(Nc1cccc2cnccc12)[C@H]1CNC[C@@H]1c1nccs1` [Compound I-58, (3R,4R)—N-(Isoquinolin-5-yl)-4-(1,3-thiazol-2-yl)pyrrolidine-3-carboxamide dihydrochloride] and `O=C(Nc1cccc(-c2ccccc2)c1)[C@@H]1CNC[C@H]1c1cccc(F)c1` (racemic) [Compound I-27, (±)-trans-N-(Biphenyl-3-yl)-4-(3-fluorophenyl)pyrrolidine-3-carboxamide hydrochloride] cannot be ordered by EC50: over 50 µM for the first, over 50 µM for the second.

`CN1CCC(CNC(=O)[C@H]2CNC[C@@H]2c2ccccc2)CC1` [Compound I-35, (3R,4S)—N-[(1-Methylpiperidin-4-yl)methyl]-4-phenylpyrrolidine-3-carboxamide dihydrochloride] showed an EC50 of over 50 µM.
